System: high-grade glioma with subarachnoid extension
Assay: treatment of patients with high-grade glioma with subarachnoid extension
Format: in vivo, human
Details: responding patients; before the combined treatment, under bevacizumab alone, or when intrathecal CpG was resumed
Protocol: Four patients had high-grade glioma with subarachnoid extension. The treatment protocol of patients was as follows:
Subcutaneous injection of 0.3 mg/kg of CpG-ODN at D0, D7, D14, D21 et D28 (capped at 25 mg per injection, for patients>83 kg)
Intrathecal administration of CpG-ODN (7 mg) (in the cerebrospinal fluid) three times, with a two-week interval between each injection (D0, D14 and D28). (In 2 patients, the intrathecal injections were continued every 2 to 4 weeks for several months). (Other intrathecal injections of larger amounts of CpG-ODN (14 mg or 17 mg), again in three steps with a two weeks interval between each injection are currently tested, in other patients in a clinical trial.)
Intravenous perfusions of Avastin from 5 to 10 mg/kg every 2 weeks, started, depending on the cases, before, during or after the beginning of CpG-ODN.

Row | Substance | clinical outcome under single agent or on resuming the combination
1 | 5′-TAAACGTTATAACGTTATGACGTCAT-3′ [CpG] | only a slight improvement
2 | Bevacizumab: monoclonal antibody directed against VEGF, marketed by Roche under the name of Avastin | progression

Source: patent publication US20140120088A1, “AGENTS FOR THE TREATMENT OF TUMORS” (Assistance Publique-Hopitaux de Paris, priority 2011, published 2014)
